The target of one experiment is T1, full-length LRRK2 G2019S (Homo sapiens, UniProt Q5S007, G2019S).
T1 construct: DYKDDDDK (FLAG)
The experiment in a line: LRRK2-G2019S kinase activity assay (Lanthascreen TR-FRET). In kind it is biochemical. The conditions noted are these: 1.1 mM ATP. How it is done:
(§1) The potency of compounds was evaluated in vitro using the Lanthascreen® technology (ThermoFisher Scientific).
(§2) In a typical experiment, the reaction assay buffer contains 50 mM Tris pH8.2, 1 mM EGTA, 2.5 mM MgCl2, 0.05% Triton X100, 0.15% BSA and 1 mM DTT. The detection of the assay is performed using 1 nM Terbium labeled anti-phospho-LRRKtide (ThermoFisher Scientific) diluted in a TR-FRET buffer (ThermoFisher Scientific).
(§3) The experimental procedure was performed with Greiner small volume® 384-well. […] The working solution of compounds was prepared in a separate Greiner microplate.
(§4) The kinase reaction was initiated by addition of the ATP/LRRKtide substrate mix diluted in the reaction assay buffer. The reaction mix was incubated for at least 10 minutes at room temperature (initial velocity conditions). Reaction was stopped by addition of Terbium labeled anti-phospho-LRRKtide diluted into the detection buffer supplemented with EDTA (ThermoFisher Scientific). Plates are incubated for at least 30 minutes at room temperature and read on an Envision™ multimode plate reader (PerkinElmer) with LanthaScreen™. The TR-FRET 520:495 nm emission ratio was calculated and used to determine the IC50 value from a dose response curve fit to the 4-parameter logistic equation. The activity with respect to LRRK2 kinase in this test is given by the concentration which inhibits 50% of the LRRK2 activity (or IC50) in nM.
Background: TR-FRET usually uses a lanthanide donor and a delayed reading to cut background.

Experiment [1] addresses T2, full-length LRRK2 wild type (Homo sapiens, UniProt Q5S007).
T2 construct: DYDDDDK tagged full-length LRRK2 wild type is used
The experiment in a line: LRRK2 WT assay (Assay A, Lanthascreen TR-FRET, 500 uM ATP). In kind it is biochemical. The conditions noted are these: Assay A (values without *). How it is done:
as §1, §2, §3, §4

T1 sequence (Q5S007 whole entry G2019S): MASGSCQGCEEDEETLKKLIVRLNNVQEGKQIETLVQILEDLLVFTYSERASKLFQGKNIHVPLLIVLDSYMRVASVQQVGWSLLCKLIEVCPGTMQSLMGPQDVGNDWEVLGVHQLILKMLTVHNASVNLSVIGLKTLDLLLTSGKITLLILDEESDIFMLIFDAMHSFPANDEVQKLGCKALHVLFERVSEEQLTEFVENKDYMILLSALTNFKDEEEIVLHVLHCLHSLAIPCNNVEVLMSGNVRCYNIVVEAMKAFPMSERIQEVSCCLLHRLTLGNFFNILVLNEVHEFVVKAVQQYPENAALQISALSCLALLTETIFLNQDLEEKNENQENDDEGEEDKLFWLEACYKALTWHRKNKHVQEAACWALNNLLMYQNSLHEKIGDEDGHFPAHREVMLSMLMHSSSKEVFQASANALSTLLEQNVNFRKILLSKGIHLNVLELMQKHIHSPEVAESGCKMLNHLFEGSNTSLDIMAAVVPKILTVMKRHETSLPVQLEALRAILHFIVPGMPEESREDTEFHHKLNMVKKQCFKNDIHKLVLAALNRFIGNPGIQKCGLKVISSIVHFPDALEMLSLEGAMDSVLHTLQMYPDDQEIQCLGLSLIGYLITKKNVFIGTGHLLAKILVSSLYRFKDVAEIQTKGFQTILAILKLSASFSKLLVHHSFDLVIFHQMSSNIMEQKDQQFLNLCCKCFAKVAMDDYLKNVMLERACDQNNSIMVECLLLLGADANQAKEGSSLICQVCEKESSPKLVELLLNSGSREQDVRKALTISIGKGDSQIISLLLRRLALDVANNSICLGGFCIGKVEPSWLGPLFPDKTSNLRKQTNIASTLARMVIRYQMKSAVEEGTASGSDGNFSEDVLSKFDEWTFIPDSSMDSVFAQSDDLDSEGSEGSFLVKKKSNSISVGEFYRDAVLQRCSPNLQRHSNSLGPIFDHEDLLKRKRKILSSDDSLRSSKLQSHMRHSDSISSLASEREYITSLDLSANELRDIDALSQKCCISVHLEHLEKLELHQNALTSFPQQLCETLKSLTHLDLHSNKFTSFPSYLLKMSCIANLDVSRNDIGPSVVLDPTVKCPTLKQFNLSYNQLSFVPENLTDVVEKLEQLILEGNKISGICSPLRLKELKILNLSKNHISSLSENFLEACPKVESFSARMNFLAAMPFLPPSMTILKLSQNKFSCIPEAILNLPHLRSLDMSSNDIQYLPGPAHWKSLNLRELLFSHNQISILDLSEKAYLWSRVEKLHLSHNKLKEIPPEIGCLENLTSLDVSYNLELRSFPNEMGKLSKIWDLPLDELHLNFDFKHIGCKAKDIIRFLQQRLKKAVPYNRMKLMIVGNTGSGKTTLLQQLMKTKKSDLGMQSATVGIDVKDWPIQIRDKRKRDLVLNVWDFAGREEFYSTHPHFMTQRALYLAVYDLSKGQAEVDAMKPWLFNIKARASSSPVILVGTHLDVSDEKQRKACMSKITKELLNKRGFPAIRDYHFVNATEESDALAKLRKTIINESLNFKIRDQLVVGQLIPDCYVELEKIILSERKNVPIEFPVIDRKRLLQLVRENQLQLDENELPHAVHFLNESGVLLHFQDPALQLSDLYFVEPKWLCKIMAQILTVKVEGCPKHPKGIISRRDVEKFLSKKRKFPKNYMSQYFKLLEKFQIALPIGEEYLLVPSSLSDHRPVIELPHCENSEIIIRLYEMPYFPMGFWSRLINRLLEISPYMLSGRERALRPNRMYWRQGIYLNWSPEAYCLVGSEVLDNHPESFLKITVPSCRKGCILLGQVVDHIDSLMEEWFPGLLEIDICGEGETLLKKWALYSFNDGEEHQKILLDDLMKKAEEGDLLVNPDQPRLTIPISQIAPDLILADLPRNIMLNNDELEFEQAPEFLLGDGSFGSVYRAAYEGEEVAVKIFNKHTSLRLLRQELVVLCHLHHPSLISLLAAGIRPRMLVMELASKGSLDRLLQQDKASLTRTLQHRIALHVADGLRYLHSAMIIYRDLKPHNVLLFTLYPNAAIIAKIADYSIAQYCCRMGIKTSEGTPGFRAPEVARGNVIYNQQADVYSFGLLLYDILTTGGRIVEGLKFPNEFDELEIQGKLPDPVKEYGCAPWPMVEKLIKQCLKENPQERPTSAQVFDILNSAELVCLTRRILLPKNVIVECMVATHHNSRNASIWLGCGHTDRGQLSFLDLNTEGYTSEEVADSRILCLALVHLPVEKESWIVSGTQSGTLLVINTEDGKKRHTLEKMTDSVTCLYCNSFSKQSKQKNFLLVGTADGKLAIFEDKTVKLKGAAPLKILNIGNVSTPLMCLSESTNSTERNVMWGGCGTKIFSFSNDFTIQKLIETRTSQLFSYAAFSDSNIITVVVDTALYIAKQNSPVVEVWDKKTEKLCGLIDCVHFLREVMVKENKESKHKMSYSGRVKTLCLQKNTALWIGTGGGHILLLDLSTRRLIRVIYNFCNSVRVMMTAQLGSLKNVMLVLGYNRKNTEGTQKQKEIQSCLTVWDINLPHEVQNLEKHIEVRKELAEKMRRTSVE
T2 sequence (Q5S007 whole entry): as the sequence (Q5S007 whole entry G2019S) above, with S2019G counted along it

In the case of `C[C@@H]1COCC[C@H]1n1c(C#N)cc2cnc(Nc3cn(CCO)nc3OC3COC3)nc21` (single isomer, unassigned) [Example 161, 2-((1-(2-hydroxyethyl)-3-(oxetan-3-yloxy)-1 H-pyrazol-4-yl)amino)-7-(trans-3-methyltetrahydro-2H-pyran-4-yl)-7H-pyrrolo[2,3-d]pyrimidine-6-carbonitrile], the IC50 against full-length LRRK2 G2019S was 14 nM; in experiment [1] it was 7 nM.
For `CC(=O)N1CC(Oc2nn(C)cc2Nc2ncc3cc(C#N)n([C@H]4COC[C@@H]4C)c3n2)C1` [Example 1, 2-[[3-(1-acetylazetidin-3-yl)oxy-1-methyl-pyrazol-4-yl]amino]-7-[(3R,4R)-4-methyltetrahydrofuran-3-yl]pyrrolo[2,3-d]pyrimidine-6-carbonitrile], in that order: 5 nM and 6 nM.
With `C[C@H]1COC[C@@H]1n1c(C#N)cc2cnc(Nc3cn(C)nc3OC3COC3)nc21` [Example 8, 2-[[1-methyl-3-(oxetan-3-yloxy)pyrazol-4-yl]amino]-7-[(3R,4R)-4-methyltetrahydrofuran-3-yl]pyrrolo[2,3-d]pyrimidine-6-carbonitrile], the IC50 came to 4 nM at full-length LRRK2 G2019S and 6 nM in experiment [1].
Regarding `CC(CO)n1cc(Nc2ncc3cc(C#N)n([C@H]4COC[C@@H]4C)c3n2)c(OC2COC2)n1` (stereo partly drawn) [Example 9, 2-[[1-[2-Hydroxy-1-methyl-ethyl]-3-(oxetan-3-yloxy)pyrazol-4-yl]amino]-7-[(3R,4R)-4-methyltetrahydrofuran-3-yl]pyrrolo[2,3-d]pyrimidine-6-carbonitrile], the IC50 (against full-length LRRK2 G2019S; in experiment [1]) was 5 nM throughout.
Regarding `C[C@H]1COC[C@@H]1n1c(C#N)cc2cnc(Nc3cn(CS(C)(=O)=O)nc3OC3COC3)nc21` [Example 14, 2-[[1-(Methylsulfonylmethyl)-3-(oxetan-3-yloxy)pyrazol-4-yl]amino]-7-[(3R,4R)-4-methyltetrahydrofuran-3-yl]pyrrolo[2,3-d]pyrimidine-6-carbonitrile], the IC50 (against full-length LRRK2 G2019S; in experiment [1]) was 2 nM each time.
Take `[2H]C([2H])([2H])n1cc(Nc2ncc3cc(C#N)n([C@H]4COC[C@@H]4C)c3n2)c(OC2COC2)n1` [Example 19, 2-((1-(Methyl-d3)-3-(oxetan-3-yloxy)-1 H-pyrazol-4-yl)amino)-7-((3R,4R)-4-methyltetrahydrofuran-3-yl)-7H-pyrrolo[2,3-d]pyrimidine-6-carbonitrile]: the IC50 (at full-length LRRK2 G2019S; in experiment [1]) was 5 nM in each case.
Turning to `C[C@H]1COC[C@@H]1n1c(C#N)cc2cnc(Nc3ccc(C(C)(C)O)cc3OC3COC3)nc21` [Example 20, 2-((4-(2-Hydroxypropan-2-yl)-2-(oxetan-3-yloxy)phenyl)amino)-7-((3R,4R)-4-methyltetrahydrofuran-3-yl)-7H-pyrrolo[2,3-d]pyrimidine-6-carbonitrile], the IC50 (against full-length LRRK2 G2019S; in experiment [1]) was 3 nM throughout.
As to `CC(C)Oc1nn(CC(F)(F)F)cc1Nc1ncc2cc(C#N)n([C@H]3COC[C@@H]3C)c2n1` [Example 25, 2-((3-Isopropoxy-1-(2,2,2-trifluoroethyl)-1H-pyrazol-4-yl)amino)-7-((3R,4R)-4-methyltetrahydrofuran-3-yl)-7H-pyrrolo[2,3-d]pyrimidine-6-carbonitrile], the IC50 (against full-length LRRK2 G2019S; in experiment [1]) was 1 nM in each case.
For the compound `CC(C)Oc1nn(C)cc1Nc1ncc2cc(C#N)n([C@H]3COC[C@@H]3C)c2n1` [Example 26, 2-((3-Isopropoxy-1-methyl-1H-pyrazol-4-yl)amino)-7-((3R,4R)-4-methyltetrahydrofuran-3-yl)-7H-pyrrolo[2,3-d]pyrimidine-6-carbonitrile], the IC50 (against full-length LRRK2 G2019S; in experiment [1]) was 1 nM throughout.
As for `C[C@H]1COC[C@@H]1n1c(C#N)cc2cnc(Nc3cn(C(C)(C)C#N)nc3OC3COC3)nc21` [Example 27, 2-((1-(2-Cyanopropan-2-yl)-3-(oxetan-3-yloxy)-1H-pyrazol-4-yl)amino)-7-((3R,4R)-4-methyltetrahydrofuran-3-yl)-7H-pyrrolo[2,3-d]pyrimidine-6-carbonitrile], the IC50 (at full-length LRRK2 G2019S; in experiment [1]) was 1 nM throughout.
On to `[2H]C([2H])([2H])n1cc(Nc2ncc3cc(C#N)n([C@H]4COC[C@@H]4C)c3n2)c(OC2CC2)n1` [Example 28, 2-((3-Cyclopropoxy-1-(methyl-d3)-1H-pyrazol-4-yl)amino)-7-((3R,4R)-4-methyltetrahydrofuran-3-yl)-7H-pyrrolo[2,3-d]pyrimidine-6-carbonitrile], for which the IC50 (against full-length LRRK2 G2019S; in experiment [1]) was 3 nM throughout.
On to `CC(C)Oc1nn(C(C)(C)C#N)cc1Nc1ncc2cc(C#N)n([C@H]3COC[C@@H]3C)c2n1` [Example 29, 2-((1-(2-Cyanopropan-2-yl)-3-isopropoxy-1H-pyrazol-4-yl)amino)-7-((3R,4R)-4-methyltetrahydrofuran-3-yl)-7H-pyrrolo[2,3-d]pyrimidine-6-carbonitrile], for which the IC50 (against full-length LRRK2 G2019S; in experiment [1]) was 1 nM each time.
Take `C[C@H]1COC[C@@H]1n1c(C#N)cc2cnc(Nc3cn(C4COC4)nc3OC3CC3)nc21` [Example 30, 2-((3-Cyclopropoxy-1-(oxetan-3-yl)-1H-pyrazol-4-yl)amino)-7-((3R,4R)-4-methyltetrahydrofuran-3-yl)-7H-pyrrolo[2,3-d]pyrimidine-6-carbonitrile]: the IC50 against full-length LRRK2 G2019S was 3 nM; in experiment [1], 5 nM.
In the same order, the values of `CC(C)Oc1nn(C2COC2)cc1Nc1ncc2cc(C#N)n([C@H]3COC[C@@H]3C)c2n1` [Example 31, 2-((3-Isopropoxy-1-(oxetan-3-yl)-1H-pyrazol-4-yl)amino)-7-((3R,4R)-4-methyltetrahydrofuran-3-yl)-7H-pyrrolo[2,3-d]pyrimidine-6-carbonitrile] are 2 nM and 2 nM.
As for `C[C@H]1COC[C@@H]1n1c(C#N)cc2cnc(Nc3cn(C)nc3OCC(C)(C)O)nc21` [Example 32, 2-((3-(2-Hydroxy-2-methylpropoxy)-1-methyl-1H-pyrazol-4-yl)amino)-7-((3R,4R)-4-methyltetrahydrofuran-3-yl)-7H-pyrrolo[2,3-d]pyrimidine-6-carbonitrile], the IC50 (against full-length LRRK2 G2019S; in experiment [1]) was 7 nM throughout.
In the case of `COCn1cc(Nc2ncc3cc(C#N)n([C@H]4COC[C@@H]4C)c3n2)c(OC2COC2)n1` [Example 33, 2-((1-(Methoxymethyl)-3-(oxetan-3-yloxy)-1H-pyrazol-4-yl)amino)-7-((3R,4R)-4-methyltetrahydrofuran-3-yl)-7H-pyrrolo[2,3-d]pyrimidine-6-carbonitrile], the IC50 is 9 nM against full-length LRRK2 G2019S and 14 nM in experiment [1].
On to `C[C@H]1COC[C@@H]1n1c(C#N)cc2cnc(Nc3cn(S(C)(=O)=O)nc3OC3COC3)nc21` [Example 34, 2-((1-(Methylsulfonyl)-3-(oxetan-3-yloxy)-1H-pyrazol-4-yl)amino)-7-((3R,4R)-4-methyltetrahydrofuran-3-yl)-7H-pyrrolo[2,3-d]pyrimidine-6-carbonitrile], for which the results for the IC50 (at full-length LRRK2 G2019S; in experiment [1]) were 5 nM and 7 nM, respectively.
With `COCn1cc(Nc2ncc3cc(C#N)n([C@H]4COC[C@@H]4C)c3n2)c(OC2CC2)n1` [Example 35, 2-((3-Cyclopropoxy-1-(methoxymethyl)-1H-pyrazol-4-yl)amino)-7-((3R,4R)-4-methyltetrahydrofuran-3-yl)-7H-pyrrolo[2,3-d]pyrimidine-6-carbonitrile], the IC50 was 6 nM on full-length LRRK2 G2019S and 4 nM in experiment [1].
Consider `C[C@H]1COC[C@@H]1n1c(C#N)cc2cnc(Nc3cn(CS(C)(=O)=O)nc3OC3CC3)nc21` [Example 36, 2-((3-Cyclopropoxy-1-((methylsulfonyl)methyl)-1H-pyrazol-4-yl)amino)-7-((3R,4R)-4-methyltetrahydrofuran-3-yl)-7H-pyrrolo[2,3-d]pyrimidine-6-carbonitrile], for which the IC50 (against full-length LRRK2 G2019S; in experiment [1]) was 1 nM in each case.
Regarding `C[C@H]1COC[C@@H]1n1c(C#N)cc2cnc(Nc3cn(C4CC4)nc3OC3COC3)nc21` [Example 37, 2-((1-Cyclopropyl-3-(oxetan-3-yloxy)-1H-pyrazol-4-yl)amino)-7-((3R,4R)-4-methyltetrahydrofuran-3-yl)-7H-pyrrolo[2,3-d]pyrimidine-6-carbonitrile], the IC50 against full-length LRRK2 G2019S is 6 nM; in experiment [1], 8 nM.
For `CCn1cc(Nc2ncc3cc(C#N)n([C@H]4COC[C@@H]4C)c3n2)c(OC2COC2)n1` [Example 38, 2-((1-Ethyl-3-(oxetan-3-yloxy)-1H-pyrazol-4-yl)amino)-7-((3R,4R)-4-methyltetrahydrofuran-3-yl)-7H-pyrrolo[2,3-d]pyrimidine-6-carbonitrile], in that order: 5 nM and 6 nM.
For `C[C@H]1COC[C@@H]1n1c(C#N)cc2cnc(Nc3cn(C)nc3OC3CCC34COC4)nc21` (stereo partly drawn) [Example 40, 2-[[1-methyl-3-[(2-oxaspiro[3.3]heptan-7-yl)oxy]pyrazol-4-yl]amino]-7-[(3R,4R)-4-methyltetrahydrofuran-3-yl]pyrrolo[2,3-d]pyrimidine-6-carbonitrile], in that order: 1 nM and 1 nM.

A word on the IC50: it is the concentration that inhibits the measured activity by half. Read a high IC50 as lower potency.

For the origin of these results see US20240383901A1, “SUBSTITUTED PYRROLO[2,3-D]PYRIMIDINES, THEIR PREPARATION AND THEIR THERAPEUTIC APPLICATION” (SANOFI, priority 2021, published 2024).
